Results published in patent US8613914B2, “Peptidomimetic sulfamide compounds and antiviral uses thereof” (Novartis AG, priority 2009, dated 2013).

Target: HCV NS3-4A serine protease (full-length NS3-4A protein) (Hepatitis C virus genotype 1a (isolate 1) (HCV), UniProt P26664)
Assay: HCV NS3-4A protease assay
Type: biochemical, HCV genotype 1a
Settings: strain HCV-1, fluorogenic peptide substrate, read-out: Protease assay Ex. 12 IC50
Protocol: The inhibitory activity of certain compounds of Table A against HCV NS3-4A serine protease is determined in a homogenous assay using the full-length NS3-4A protein (genotype 1a, strain HCV-1) and a commercially available internally-quenched fluorogenic peptide substrate as described by Taliani, M., et al. 1996 Anal. Biochem. 240:60-67, which is incorporated by reference in its entirety.

Chain of HCV NS3-4A serine protease (full-length NS3-4A protein) (P26664 1027-1657): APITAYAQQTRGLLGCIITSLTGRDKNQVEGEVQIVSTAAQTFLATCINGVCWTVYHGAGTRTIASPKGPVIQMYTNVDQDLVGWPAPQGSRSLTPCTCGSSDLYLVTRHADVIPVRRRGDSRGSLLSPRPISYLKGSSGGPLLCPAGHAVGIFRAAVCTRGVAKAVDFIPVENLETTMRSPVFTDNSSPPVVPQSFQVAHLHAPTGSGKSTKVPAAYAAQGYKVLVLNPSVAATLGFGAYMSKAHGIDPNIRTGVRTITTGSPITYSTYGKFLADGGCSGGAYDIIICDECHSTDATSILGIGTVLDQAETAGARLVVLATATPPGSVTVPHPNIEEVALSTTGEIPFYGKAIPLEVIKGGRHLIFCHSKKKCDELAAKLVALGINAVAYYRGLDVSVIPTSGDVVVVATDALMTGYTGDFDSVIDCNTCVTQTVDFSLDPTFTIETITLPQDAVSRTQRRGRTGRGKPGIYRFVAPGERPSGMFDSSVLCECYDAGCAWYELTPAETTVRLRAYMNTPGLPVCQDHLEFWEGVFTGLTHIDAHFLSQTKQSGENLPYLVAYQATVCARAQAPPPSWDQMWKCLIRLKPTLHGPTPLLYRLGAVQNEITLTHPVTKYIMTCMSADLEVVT
Chain of HCV NS3-4A serine protease (full-length NS3-4A protein) (P26664 1658-1711 partner): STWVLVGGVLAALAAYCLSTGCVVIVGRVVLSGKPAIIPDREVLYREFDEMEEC

| SMILES | IC50 |
| --- | --- |
| C=C[C@@H]1C[C@]1(NC(=O)[C@@H]1C[C@@]2(CN1C(=O)[C@@H](NC(=O)[C@@H](NC(=O)[C@@H]1CCCCN1C(C)C)C1CCOCC1)C1(C)CCOCC1)C(C)(C)C21CCC1)C(=O)NS(=O)(=O)N1CCCC1 [Compound 127, (5R,8S)-7-[(2S)-2-{[(2S)-2-({[(2S)-1-isopropylpiperidin-2-yl]carbonyl}amino)-2-(tetrahydro-2H-pyran-4-yl)acetyl]amino}-2-(4-methyltetrahydro-2H-pyran-4-yl)acetyl]-10,10-dimethyl-N-{(1R,2S)-1-[(pyrrolidin-1-ylsulfonyl)carbamoyl]-2-vinylcyclopropyl}-7-azadispiro[3.0.4.1]decane-8-carboxamide] | 4 nM |
| CC[C@@H]1C[C@]1(NC(=O)[C@@H]1C[C@@]2(CN1C(=O)[C@@H](NC(=O)[C@@H](NC(=O)[C@@H]1CCCN1C(C)C)C1CCCCC1)C(C)(C)C)C(C)(C)C21CCC1)C(=O)NS(=O)(=O)N1CCCC1 [Compound 116, (5R,8S)-7-[(2S)-2-{[(2S)-2-cyclohexyl-2-({[(2S)-1-isopropylpyrrolidin-2-yl]carbonyl}amino)acetyl]amino}-3,3-dimethylbutanoyl]-N-{(1R,2R)-2-ethyl-1-[(pyrrolidin-1-ylsulfonyl)carbamoyl]cyclopropyl}-10,10-dimethyl-7-azadispiro[3.0.4.1]decane-8-carboxamide] | 4.5 nM |
| C=C[C@@H]1C[C@]1(NC(=O)[C@@H]1C[C@@]2(CN1C(=O)[C@@H](NC(=O)[C@@H](NC(=O)[C@@H]1CCCCN1C(C)C)C1(C)CCCCC1)C1(C)CCOCC1)C(C)(C)C21CCC1)C(=O)NS(=O)(=O)N(CC)CC [Compound 152, (5R,8S)-N-[(1R,2S)-1-{[(diethylamino)sulfonyl]carbamoyl}-2-vinylcyclopropyl]-7-[(2S)-2-{[(2S)-2-({[(2S)-1-isopropylpiperidin-2-yl]carbonyl}amino)-2-(1-methylcyclohexyl)acetyl]amino}-2-(4-methyltetrahydro-2H-pyran-4-yl)acetyl]-10,10-dimethyl-7-azadispiro[3.0.4.1]decane-8-carboxamide] | 1.1 nM |
| C=C[C@@H]1C[C@]1(NC(=O)[C@@H]1C[C@@]2(CN1C(=O)[C@@H](NC(=O)[C@@H](NC(=O)[C@@H]1CCCN1CC)C(C)(C)C)C1(C)CCOCC1)C(C)(C)C21CCC1)C(=O)NS(=O)(=O)N1CCCC1 [Compound 126, 1-ethyl-L-prolyl-N-[(1S)-2-[(5R,8S)-10,10-dimethyl-8-({(1R,2S)-1-[(pyrrolidin-1-ylsulfonyl)carbamoyl]-2-vinylcyclopropyl}carbamoyl)-7-azadispiro[3.0.4.1]dec-7-yl]-1-(4-methyltetrahydro-2H-pyran-4-yl)-2-oxoethyl]-3-methyl-L-valinamide] | 6 nM |
| CC[C@@H]1C[C@]1(NC(=O)[C@@H]1C[C@@]2(CN1C(=O)[C@@H](NC(=O)[C@@H](NC(=O)[C@@H]1CCCCN1CC)C1CCCCC1)C(C)(C)C)C(C)(C)C21CCC1)C(=O)NS(=O)(=O)N(CC)CC [Compound 86, (5R,8S)-7-[(2S)-2-{[(2S)-2-cyclohexyl-2-({[(2S)-1-ethylpiperidin-2-yl]carbonyl}amino)acetyl]amino}-3,3-dimethylbutanoyl]-N-[(1R,2R)-1-{[(diethylamino)sulfonyl]carbamoyl}-2-ethylcyclopropyl]-10,10-dimethyl-7-azadispiro[3.0.4.1]decane-8-carboxamide] | 4.5 nM |
| C=C[C@@H]1C[C@]1(NC(=O)[C@@H]1C[C@@]2(CN1C(=O)[C@@H](NC(=O)[C@@H](NC(=O)[C@@H]1CCCN1CCF)C1CCCCC1)C1CCOCC1)C(C)(C)C21CCC1)C(=O)NS(=O)(=O)N1CCCC1 [Compound 73, (5R,8S)-7-[(2S)-2-{[(2S)-2-cyclohexyl-2-({[(2S)-1-(2-fluoroethyl)pyrrolidin-2-yl]carbonyl}amino)acetyl]amino}-2-(tetrahydro-2H-pyran-4-yl)acetyl]-10,10-dimethyl-N-{(1R,2S)-1-[(pyrrolidin-1-ylsulfonyl)carbamoyl]-2-vinylcyclopropyl}-7-azadispiro[3.0.4.1]decane-8-carboxamide] | 15 nM |
| C=C[C@@H]1C[C@]1(NC(=O)[C@@H]1C[C@@]2(CN1C(=O)[C@@H](NC(=O)[C@@H](NC(=O)c1ccc3occc3c1)C1CCCCC1)C(C)(C)C)C(C)(C)C21CCC1)C(=O)NS(=O)(=O)N1CCCC1 [Compound 192, (5R,8S)-7-[(2S)-2-({[(1-benzofuran-5-ylcarbonyl)amino](cyclohexyl)acetyl}amino)-3,3-dimethylbutanoyl]-10,10-dimethyl-N-{(1R,2S)-1-[(pyrrolidin-1-ylsulfonyl)carbamoyl]-2-vinylcyclopropyl}-7-azadispiro[3.0.4.1]decane-8-carboxamide] | 25 nM |
| C=C[C@@H]1C[C@]1(NC(=O)[C@@H]1C[C@@]2(CN1C(=O)[C@@H](NC(=O)[C@@H](NC(=O)[C@@H]1CCCN1CC)C1(C)CCCCC1)C(C)(C)C)C(C)(C)C21CCC1)C(=O)NS(=O)(=O)N1CCCC1 [Compound 136, (5R,8S)-7-[(2S)-2-{[(2S)-2-({[(2S)-1-ethylpyrrolidin-2-yl]carbonyl}amino)-2-(1-methylcyclohexyl)acetyl]amino}-3,3-dimethylbutanoyl]-10,10-dimethyl-N-{(1R,2S)-1-[(pyrrolidin-1-ylsulfonyl)carbamoyl]-2-vinylcyclopropyl}-7-azadispiro[3.0.4.1]decane-8-carboxamide] | 7 nM |
| C=C[C@@H]1C[C@]1(NC(=O)[C@@H]1C[C@@]2(CN1C(=O)[C@@H](NC(=O)CC1(CC(N)=O)CCCCC1)C(C)(C)C)C(C)(C)C21CCC1)C(=O)NS(=O)(=O)N1CCCC1 [Compound 60, (5R,8S)-7-[(2S)-2-({[1-(2-amino-2-oxoethyl)cyclohexyl]acetyl}amino)-3,3-dimethylbutanoyl]-10,10-dimethyl-N-{(1R,2S)-1-[(pyrrolidin-1-ylsulfonyl)carbamoyl]-2-vinylcyclopropyl}-7-azadispiro[3.0.4.1]decane-8-carboxamide] | 1250 nM |
| C=C[C@@H]1C[C@]1(NC(=O)[C@@H]1C[C@@]2(CN1C(=O)[C@@H](NC(=O)[C@@H](NC(=O)[C@@H]1CCCCN1C(C)C)C1(C)CCCCC1)C(C)(C)C)C(C)(C)C21CCC1)C(=O)NS(=O)(=O)N(CC)CC [Compound 133, (5R,8S)-N-[(1R,2S)-1-{[(diethylamino)sulfonyl]carbamoyl}-2-vinylcyclopropyl]-7-[(2S)-2-{[(2S)-2-({[(2S)-1-isopropylpiperidin-2-yl]carbonyl}amino)-2-(1-methylcyclohexyl)acetyl]amino}-3,3-dimethylbutanoyl]-10,10-dimethyl-7-azadispiro[3.0.4.1]decane-8-carboxamide] | 3 nM |
| C=C[C@@H]1C[C@]1(NC(=O)[C@@H]1C[C@@]2(CN1C(=O)[C@@H](NC(=O)[C@@H](NC(=O)[C@@H]1CCCCN1C(C)C)C1CCCCC1)C(C)(C)C)C(C)(C)C21CCC1)C(=O)NS(=O)(=O)N(C)C1CC1 [Compound 53, (5R,8S)-7-[(2S)-2-{[(2S)-2-cyclohexyl-2-({[(2S)-1-isopropylpiperidin-2-yl]carbonyl}amino)acetyl]amino}-3,3-dimethylbutanoyl]-N-[(1R,2S)-1-({[cyclopropyl(methyl)amino]sulfonyl}carbamoyl)-2-vinylcyclopropyl]-10,10-dimethyl-7-azadispiro[3.0.4.1]decane-8-carboxamide] | 1.7 nM |
| CC[C@@H]1C[C@]1(NC(=O)[C@@H]1C[C@@]2(CN1C(=O)[C@@H](NC(=O)[C@@H](NC(=O)[C@H]1CCCCN1C(C)C)C1CCCCC1)C(C)(C)C)C(C)(C)C21CCC1)C(=O)NS(=O)(=O)N1CCCC1 [Compound 123, (5R,8S)-7-[(2S)-2-{[(2S)-2-cyclohexyl-2-({[(2R)-1-isopropylpiperidin-2-yl]carbonyl}amino)acetyl]amino}-3,3-dimethylbutanoyl]-N-{(1R,2R)-2-ethyl-1-[(pyrrolidin-1-ylsulfonyl)carbamoyl]cyclopropyl}-10,10-dimethyl-7-azadispiro[3.0.4.1]decane-8-carboxamide] | 8 nM |
| C=C[C@@H]1C[C@]1(NC(=O)[C@@H]1C[C@@]2(CN1C(=O)[C@@H](NC(=O)[C@@H](NC(=O)C1CCN1C(C)(C)C)C1CCCCC1)C(C)(C)C)C(C)(C)C21CCC1)C(=O)NS(=O)(=O)N1CCCC1 (stereo partly drawn) [Compound 40, (5R,8S)-7-[(2S)-2-{[(2S)-2-{[(1-tert-butylazetidin-2-yl)carbonyl]amino}-2-cyclohexylacetyl]amino}-3,3-dimethylbutanoyl]-10,10-dimethyl-N-{(1R,2S)-1-[(pyrrolidin-1-ylsulfonyl)carbamoyl]-2-vinylcyclopropyl}-7-azadispiro[3.0.4.1]decane-8-carboxamide] | 6 nM |
| C=C[C@@H]1C[C@]1(NC(=O)[C@@H]1C[C@@]2(CN1C(=O)[C@@H](NC(=O)[C@@H](NC(=O)[C@@H]1CCCN1C(C)C)C(C)(C)C)C(C)(C)C)C(C)(C)C21CCC1)C(=O)NS(=O)(=O)N1CCCC1 [Compound 11, (5R,8S)-7-[(2S)-2-{[(2S)-2-({[(2S)-1-isopropylpyrrolidin-2-yl]carbonyl}amino)-3,3-dimethylbutanoyl]amino}-3,3-dimethylbutanoyl]-10,10-dimethyl-N-{(1R,2S)-1-[(pyrrolidin-1-ylsulfonyl)carbamoyl]-2-vinylcyclopropyl}-7-azadispiro[3.0.4.1]decane-8-carboxamide] | 20 nM |
| C=C[C@@H]1C[C@]1(NC(=O)[C@@H]1C[C@@]2(CN1C(=O)[C@@H](NC(=O)[C@@H](NC(=O)[C@@H]1CCCCN1C(C)C)C1CCCCC1)C(C)(C)C)C(C)(C)C21CCC1)C(=O)NS(=O)(=O)N(C)C [Compound 162, (5R,8S)-7-[(2S)-2-{[(2S)-2-cyclohexyl-2-{[(1-isopropylpiperidin-2-yl)carbonyl]amino}acetyl]amino}-3,3-dimethylbutanoyl]-N-[(1R,2S)-1-{[(dimethylamino)sulfonyl]carbamoyl}-2-vinylcyclopropyl]-10,10-dimethyl-7-azadispiro[3.0.4.1]decane-8-carboxamide] | 0.9 nM |
